The target of series [1] is T1, human cardiac sodium channel, SCNSA (Homo sapiens, UniProt Q14524).
T1 construct: expressed in transfected cells; host or cells: HEK-293
As to the kind of experiment: Sodium channel whole-cell patch-clamp assay. The settings on record: HEK293, HEK-293, protein-free buffer, read-out: Na channel, % inh. It is filed as cell-based. As for the experimental part: Whole-cell patch-clamp was used to directly measure inward sodium currents in HEK-293 cells expressing the human cardiac sodium channel, SCNSA. After reach steady-state effect in the presence of drug, rate-dependence was assessed by stimulation at frequencies of 1 Hz and 4 Hz. Experiments were carried out using an aqueous buffer at pH 7.4 and at room temperature. There is no protein in the buffer and drug concentrations reported are nominal free drug levels. Test article was evaluated up to 10 μM (protein-free buffer). […] Data is reported as percent inhibition at a fixed concentration.

The nature of series [2]: Electrocardiography in anesthetized rabbits (rabbit in vivo EP effect). The settings on record: for QT effect Dose: i.v. infusion 3, 10, 30 mg/kg; for QTcf, delta: change from pre-drug baseline. As to the method:
A dose-response study of test compound was conducted in anesthetized rabbits to assess the cardiac electrophysiologic profile established in the cellular ion channel assays.
Experiments were performed in propofol-fentanyl anesthetized closed-chest male rabbits. A body surface electrocardiogram (ECG) and an intra-cardiac His-bundle electrogram were continuously monitored and recorded during the studies, using a PoNeMah system and a Prucka electrophysiological recording system, respectively. Test compound was prepared on the day of study in a vehicle of PEG400:ethanol:water (1:1:1) at a dosing concentration of 30 mg/mL. Test compound (n=3) or vehicle (n=3) was given intravenously over 5 minutes via an infusion pump at incremental doses of 3, 10 and 30 mg/kg. The interval between doses was 10 minutes, allowing for a 5-minute test agent infusion and a 5-minute rest period. Blood was sampled at baseline (pre-drug infusion) and immediately at the end of each infusion. For the 30 mg/kg dose, additional blood samples were taken at 10, 20 and 30 minutes after the end of infusion.
PR interval, QRS duration and QT interval were averaged from a 1 minute ECG recording period at time of blood sampling. QT interval was corrected for heart rate effects using both Fridericia (QTcf) and Van der Water (QTcv) formulae. AH and HV intervals, representing A-V node conduction and His-Purkinje conduction, respectively, were assessed by manual measurements from the His-bundle electrogram. Data were expressed as percent change from pre-drug baseline (mean±SEM) for PR, QRS, AH and HV intervals as well as delta change from the pre-drug infusion baseline (mean±SEM) for QTc intervals. Changes of 10% in PR, QRS, and AH intervals, and 20% in HV interval, as well as >10 ms in QTc interval are considered significant based on experience with the model.

Series [3] in a line: Single-dose pharmacokinetics in rats. The series is classed as in vivo. The settings on record: for clearance / bioavailability: male, Sprague-Dawley, rat, plasma; for clearance: intravenous; for bioavailability: po. As for the experimental part: Serial blood samples were collected for all studies from the jugular vein at various time points post dose (0.17 (or 0.25 for oral), 0.5, 0.75, 1, 2, 4, 6, 8 and 24 h, for example). Plasma samples were analyzed by LC-MS/MS.
Additional studies evaluating suspensions of crystalline drug substance in aqueous medium were performed as described above.

Series [4] is described as follows: Single-dose pharmacokinetics in dogs. It is filed as in vivo. The conditions noted are these: for clearance: intravenous. As to the method:
Serial blood samples were collected for all studies at various time points post dose (0.17 (or 0.25 for oral), 0.5, 0.75, 1, 2, 4, 6, 8 and 24 h, for example). Plasma samples were analyzed by LC-MS/MS.

Setting [5] is: crystalline suspension in aqueous medium, read-out: Relative bioavailability when dosed as a crystalline suspension.

A value given as a limit tells only on which side of the number the result lay.

As a reminder, the clearance is the rate of elimination divided by the concentration. A higher clearance goes with a high capacity for elimination. In general, bioavailability refers to dose-corrected exposure relative to a reference, in per cent.

T1 sequence (Q14524 whole entry): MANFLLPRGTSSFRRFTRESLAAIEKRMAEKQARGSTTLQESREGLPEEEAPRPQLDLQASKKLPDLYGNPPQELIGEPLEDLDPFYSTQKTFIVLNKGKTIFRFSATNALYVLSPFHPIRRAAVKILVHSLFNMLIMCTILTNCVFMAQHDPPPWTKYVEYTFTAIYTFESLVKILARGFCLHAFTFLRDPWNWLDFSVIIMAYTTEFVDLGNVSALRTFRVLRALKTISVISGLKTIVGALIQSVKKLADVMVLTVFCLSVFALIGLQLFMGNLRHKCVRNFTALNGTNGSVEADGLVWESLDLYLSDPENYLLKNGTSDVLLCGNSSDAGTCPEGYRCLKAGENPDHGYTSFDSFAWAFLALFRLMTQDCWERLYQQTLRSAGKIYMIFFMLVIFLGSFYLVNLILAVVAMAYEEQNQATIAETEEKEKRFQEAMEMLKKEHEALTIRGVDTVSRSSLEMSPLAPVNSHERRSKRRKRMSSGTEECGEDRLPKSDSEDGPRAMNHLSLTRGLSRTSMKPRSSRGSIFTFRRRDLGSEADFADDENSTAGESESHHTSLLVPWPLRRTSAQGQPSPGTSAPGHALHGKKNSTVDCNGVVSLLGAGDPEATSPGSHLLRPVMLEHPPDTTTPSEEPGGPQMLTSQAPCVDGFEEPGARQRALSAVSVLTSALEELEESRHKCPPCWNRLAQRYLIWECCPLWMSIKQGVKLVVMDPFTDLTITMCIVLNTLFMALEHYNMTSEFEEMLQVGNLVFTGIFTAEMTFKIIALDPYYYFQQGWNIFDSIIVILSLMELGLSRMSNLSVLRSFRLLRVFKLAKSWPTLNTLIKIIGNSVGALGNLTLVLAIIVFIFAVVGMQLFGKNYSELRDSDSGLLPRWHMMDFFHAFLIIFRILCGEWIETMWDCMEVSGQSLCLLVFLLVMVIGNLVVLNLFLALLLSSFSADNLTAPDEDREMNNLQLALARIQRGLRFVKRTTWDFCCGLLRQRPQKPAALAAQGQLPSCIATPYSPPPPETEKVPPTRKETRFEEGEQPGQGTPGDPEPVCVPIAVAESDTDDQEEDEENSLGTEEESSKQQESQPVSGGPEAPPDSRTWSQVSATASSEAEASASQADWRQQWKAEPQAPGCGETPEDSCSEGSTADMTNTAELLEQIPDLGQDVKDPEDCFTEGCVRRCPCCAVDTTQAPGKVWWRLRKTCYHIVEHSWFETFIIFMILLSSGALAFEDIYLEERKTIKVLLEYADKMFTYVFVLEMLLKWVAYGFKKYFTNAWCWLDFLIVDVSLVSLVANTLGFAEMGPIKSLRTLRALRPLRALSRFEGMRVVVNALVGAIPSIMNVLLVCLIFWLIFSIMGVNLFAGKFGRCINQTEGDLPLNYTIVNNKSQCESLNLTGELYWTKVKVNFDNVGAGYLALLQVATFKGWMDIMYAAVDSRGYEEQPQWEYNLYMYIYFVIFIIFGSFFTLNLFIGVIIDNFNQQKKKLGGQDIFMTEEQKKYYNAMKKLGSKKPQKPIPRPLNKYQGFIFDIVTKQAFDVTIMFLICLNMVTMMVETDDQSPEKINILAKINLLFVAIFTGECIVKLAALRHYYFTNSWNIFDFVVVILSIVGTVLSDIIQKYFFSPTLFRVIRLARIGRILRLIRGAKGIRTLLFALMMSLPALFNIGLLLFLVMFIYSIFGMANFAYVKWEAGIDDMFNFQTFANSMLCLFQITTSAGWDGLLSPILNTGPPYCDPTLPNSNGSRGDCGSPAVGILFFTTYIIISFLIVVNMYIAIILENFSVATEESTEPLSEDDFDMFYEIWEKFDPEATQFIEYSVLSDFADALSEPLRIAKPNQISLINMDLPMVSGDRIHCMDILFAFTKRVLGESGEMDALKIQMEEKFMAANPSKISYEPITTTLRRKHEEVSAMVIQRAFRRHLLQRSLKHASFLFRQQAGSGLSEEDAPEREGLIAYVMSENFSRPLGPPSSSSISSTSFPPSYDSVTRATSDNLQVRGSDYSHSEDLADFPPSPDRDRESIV

As for `CC(C)[C@@H](NC(=O)c1cccc(S(N)(=O)=O)c1)C(=O)N1CC[C@](O)(c2ccc(Cl)cc2)C(C)(C)C1` [Example 491], in series [1], the inhibition at 10 µM came to 13%. In addition, the “Cmax: Free drug (at NOEL dose)” value in series [2] came to 3.1 µM. For the same molecule, the “Cmax: Free drug (at QT effect dose)” value in series [2] is 5.5 µM. The same molecule showed an NOEL dose in series [2] (i.v. infusion) of 10 mg/kg. For the same molecule, in series [2], the “QT effect Dose” value turned out to be 30 mg/kg. Besides, the “QTcf, delta” value in series [2] (i.v. infusion) is “+17 ms”. Moreover, the clearance in series [3] worked out at 67 mL/min/kg; in series [4] (male, beagle, dog, plasma) it was 7.9 mL/min/kg. Further, the bioavailability in series [3] (setting [5]) amounted to 0%; in series [3] (oral solution, read-out: Rat oral bioavailability when dosed as solution), 23%; in series [4] (male, beagle, plasma, dog, oral solution, read-out: dog oral bioavailability when dosed as solution), 100%.

Regarding `CC(C)[C@@H](NC(=O)[C@@H]1CC[C@@H](O)C1)C(=O)N1CC[C@](O)(c2ccc(Cl)cc2)C(C)(C)C1` [Example 572], in series [1], the inhibition at 10 µM turned out to be 25%. In addition, in series [2], the “Cmax: Free drug (at NOEL dose)” value is under 6.3 µM, the “Cmax: Free drug (at QT effect dose)” value is 6.3 µM and the “QT effect Dose” value came to 10 mg/kg. For the same molecule, in series [2] (i.v. infusion), the “QTcf, delta” value was “+22 ms”. The molecule further registered a clearance in series [3] of 29 mL/min/kg. Besides, the bioavailability in series [3] (setting [5]) is over 90%. For the same molecule, the “Rat oral bioavailability when dosed as solution” value in series [3] (oral solution) was determined as 37%. The clearance in series [4] (male, beagle, dog, plasma) is 4.9 mL/min/kg. The “dog oral bioavailability when dosed as solution” value in series [4] (oral solution) was 72.

For the origin of these results see patent US8642622B2, “Piperidinyl compound as a modulator of chemokine receptor activity” (Bristol-Myers Squibb Company, priority 2010, dated 2014).
